The source of these data is ChEMBL document CHEMBL6087428, “Discovery of potent and selective factor XIa inhibitors incorporating triazole-based benzoic acid as novel P2' fragments: Molecular dynamics simulations and anticoagulant activity” (Eur J Med Chem, 2025).

Experiment [1] deals with T1, Coagulation factor XI (Homo sapiens, UniProt P03951). The experiment is described as follows: Inhibition of human Factor XIa using Boc-Glu(OBzl)-Ala-Arg-AMC assessed as AMC release preincubated for 15 mins followed by substrate addition and measured after 10 mins by microplate fluorescence reader analysis.
For experiment [2], the target named is T2, Plasma kallikrein (Homo sapiens, UniProt P03952). The experiment is described as follows: Inhibition of human PKa using H-Pro-Phe-Arg-AMC as substrate incubated for 15 mins by fluorescence reader analysis.
A further experiment has as its target Coagulation factor X (Homo sapiens, UniProt P00742). The experiment is described as follows: Inhibition of human Factor Xa using Boc-Ile-Glu-Gly-Arg-AMC as substrate incubated for 15 mins by fluorescence reader analysis.
In the next experiment the target is Prothrombin (Homo sapiens, UniProt P00734). As to the kind of experiment: Inhibition of human thrombin using Boc-Asp(OBzl)-Pro-Arg-AMC as substrate incubated for 15 mins by fluorescence reader analysis.
The target of a further experiment is Trypsin (Homo sapiens, UniProt P07477+P07478+P35030). The experiment is described as follows: Inhibition of human trypsin using Boc-Ile-Glu-Gly-Arg-AMC as substrate incubated for 15 mins by fluorescence reader analysis. In kind it is protein assay.
The species entered for experiment [3] is Homo sapiens. The experiment is described as follows: Selectivity ratio of IC50 for human Factor Xa using Boc-Ile-Glu-Gly-Arg-AMC as substrate to IC50 for human Factor XIa using Boc-Glu(OBzl)-Ala-Arg-AMC.
The species entered for experiment [4] is Homo sapiens. The experiment is described as follows: Selectivity ratio of IC50 for human thrombin using Boc-Asp(OBzl)-Pro-Arg-AMC as substrate to IC50 for human Factor XIa using Boc-Glu(OBzl)-Ala-Arg-AMC.
For experiment [5], the species on record is Homo sapiens. As to the kind of experiment: Selectivity ratio of IC50 for human trypsin using Boc-Ile-Glu-Gly-Arg-AMC as substrate to IC50 for human Factor XIa using Boc-Glu(OBzl)-Ala-Arg-AMC.
Experiment [6] has as its system Plasma. The experiment is described as follows: Anticoagulant activity in citrated human pooled plasma assessed as prolongation of activated partial thromboplastin time incubated for 5 mins by aPTT reagent based semi-automated coagulometric analysis. The experiment is classed as functional.
Experiment [7] deals with Plasma. The experiment is described as follows: Anticoagulant activity in citrated human pooled plasma assessed as prolongation of prothrombin time incubated for 3 mins by PT reagent based semi-automated coagulometric analysis. In kind it is functional. The following applies: 0.05 h.
In experiment [8] the target is T1, Coagulation factor XI. The experiment is described as follows: Inhibition of Factor XIa (unknown origin).
Experiment [9] concerns the target T2, Plasma kallikrein. As to the kind of experiment: Inhibition of Pka (unknown origin).

Usually IC50 stands for the concentration that inhibits the measured activity by half.

T1 sequence (P03951 19-387 limits assumed): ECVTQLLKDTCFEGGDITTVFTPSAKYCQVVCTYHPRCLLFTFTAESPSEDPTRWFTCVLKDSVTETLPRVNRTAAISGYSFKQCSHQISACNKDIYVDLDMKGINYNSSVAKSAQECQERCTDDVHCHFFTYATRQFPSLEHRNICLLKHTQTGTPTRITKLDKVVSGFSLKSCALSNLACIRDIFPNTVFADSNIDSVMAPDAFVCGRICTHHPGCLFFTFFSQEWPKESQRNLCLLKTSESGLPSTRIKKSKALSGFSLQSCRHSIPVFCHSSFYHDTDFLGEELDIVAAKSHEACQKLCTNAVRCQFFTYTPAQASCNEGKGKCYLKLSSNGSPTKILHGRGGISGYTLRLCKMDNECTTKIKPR
T1 sequence (P03951 388-625 limits assumed): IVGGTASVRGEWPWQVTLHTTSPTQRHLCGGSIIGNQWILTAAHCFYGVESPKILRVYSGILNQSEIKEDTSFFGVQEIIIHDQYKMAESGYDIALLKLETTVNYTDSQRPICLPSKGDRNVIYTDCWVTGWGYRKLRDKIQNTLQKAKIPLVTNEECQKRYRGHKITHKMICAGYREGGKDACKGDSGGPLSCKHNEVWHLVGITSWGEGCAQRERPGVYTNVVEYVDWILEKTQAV
T2 sequence (P03952 20-390 limits assumed): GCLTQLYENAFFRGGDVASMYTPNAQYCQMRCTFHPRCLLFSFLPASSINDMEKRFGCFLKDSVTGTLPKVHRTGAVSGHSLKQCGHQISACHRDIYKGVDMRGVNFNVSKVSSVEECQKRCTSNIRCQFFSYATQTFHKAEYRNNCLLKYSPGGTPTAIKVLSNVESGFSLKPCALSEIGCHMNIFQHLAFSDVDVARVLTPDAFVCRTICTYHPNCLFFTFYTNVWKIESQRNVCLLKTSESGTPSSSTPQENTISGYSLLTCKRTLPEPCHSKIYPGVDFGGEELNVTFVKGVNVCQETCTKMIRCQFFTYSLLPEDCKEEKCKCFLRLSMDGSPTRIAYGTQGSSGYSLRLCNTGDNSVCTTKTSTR
T2 sequence (P03952 391-638 limits assumed): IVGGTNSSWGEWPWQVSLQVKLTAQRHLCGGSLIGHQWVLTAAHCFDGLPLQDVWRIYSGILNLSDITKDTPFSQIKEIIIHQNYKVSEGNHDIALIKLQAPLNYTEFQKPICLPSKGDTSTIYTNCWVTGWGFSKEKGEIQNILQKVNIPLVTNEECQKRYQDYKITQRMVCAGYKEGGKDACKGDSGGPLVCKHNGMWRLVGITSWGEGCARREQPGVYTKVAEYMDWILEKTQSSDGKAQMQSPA
Sequence of Coagulation factor X (P00742 41-179 limits assumed): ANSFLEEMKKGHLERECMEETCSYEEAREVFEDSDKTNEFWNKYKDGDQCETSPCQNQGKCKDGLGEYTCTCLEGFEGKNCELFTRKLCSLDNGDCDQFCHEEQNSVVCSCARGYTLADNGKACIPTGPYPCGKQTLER
Sequence of Coagulation factor X (P00742 235-488 limits assumed): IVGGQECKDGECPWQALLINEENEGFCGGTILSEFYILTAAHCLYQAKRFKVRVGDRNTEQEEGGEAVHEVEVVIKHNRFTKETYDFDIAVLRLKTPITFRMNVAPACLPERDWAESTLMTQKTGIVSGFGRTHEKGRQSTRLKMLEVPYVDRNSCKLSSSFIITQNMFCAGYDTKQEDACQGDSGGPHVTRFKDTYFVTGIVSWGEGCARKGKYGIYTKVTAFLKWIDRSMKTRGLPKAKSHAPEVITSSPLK

`COc1cn([C@@H](Cc2ccccc2)c2cn(-c3ccc(C(=O)O)cc3)nn2)c(=O)cc1-c1cc(Cl)ccc1-n1cc(Cl)nn1`: the IC50 at Coagulation factor XI [1] amounted to 1.52 nM; at Plasma kallikrein [2] it was 73.1 nM; on Coagulation factor X it was 46800 nM; against Prothrombin it was 24400 nM; on Trypsin it was 14100 nM. For the same compound, the Ratio IC50 in the experiment listed under Homo sapiens [3] was over 30000; in the experiment filed under Homo sapiens [4], over 16000; in the experiment filed under Homo sapiens [5] it was over 9000. In addition, the EC1.5 with Plasma [6] came to 0.75 µM. Besides, the EC2 with Plasma [7] is over 100 µM.
Consider `CCC(c1ccc2cc(C(=O)O)ccc2c1)n1cc(OC)c(-c2cc(Cl)ccc2-n2cc(C(F)(F)F)nn2)cc1=O` (configuration not stated), for which the half-inhibitory concentration (IC50) on Coagulation factor XI [8] is 86.6 nM; on Plasma kallikrein [9], 258 nM.
For `COc1cn([C@@H](Cc2ccccc2)c2cn(-c3ccc(C(=O)O)cc3)nn2)c(=O)cc1-c1cc(Cl)ccc1-n1cc(C(F)(F)F)nn1`, the IC50 on Coagulation factor XI [1] was 0.38 nM; at Plasma kallikrein [2] it was 59.2 nM; on Coagulation factor X, 31600 nM; against Prothrombin, 51000 nM; against Trypsin, 16500 nM. The figures for the Ratio IC50 in the experiment filed under Homo sapiens [3], in the experiment listed under Homo sapiens [4] and in the experiment filed under Homo sapiens [5] were over 80000, over 130000 and over 10000, respectively. For the same compound, the EC1.5 with Plasma [6] was determined as 0.55 µM. Moreover, the EC2 with Plasma [7] was over 100 µM.
